US10874669B2 (WAYNE STATE UNIVERSITY, priority 2018, dated 2020)

Columns and labels:
cloned D2L receptors = cloned D2L receptors (Rattus norvegicus (Rat), UniProt P61169); test: [3H]spiperone displacement, cloned D2L receptors in HEK cells; format: binding; conditions: means±SEM for 3 experiments
Excerpt: The following table provides inhibition constants for displacing [3H]spiperone binding to the cloned D2L and D3 receptors expressed in HEK cells. […] NR=Not repeated.

cloned D3 receptors = cloned D3 receptors (Rattus norvegicus (Rat), UniProt P19020); test: [3H]spiperone displacement, cloned D3 receptors in HEK cells; format: binding; conditions: means±SEM for 3 experiments
Excerpt: The following table provides inhibition constants for displacing [3H]spiperone binding to the cloned D2L and D3 receptors expressed in HEK cells. Results are means±SEM for 3 experiments each performed in triplicate. NR=Not repeated.

cloned rat D2L receptors = cloned rat D2L receptors (Rattus norvegicus (Rat), UniProt P61169); test: [3H]spiroperidol competition binding, rat D2L receptors in HEK-293 cells; conditions: values of Table 3; for Ki: rat D2 in HEK-293 cells; for D2/D3: ratio of Ki values
Excerpt: (§1) All these procedures were described by us previously.

cloned rat D3 receptors = cloned rat D3 receptors (Rattus norvegicus (Rat), UniProt P19020); test: [3H]spiroperidol competition binding, rat D3 receptors in HEK-293 cells; conditions: rat D3 in HEK-293 cells; values of Table 3
Experimental: A well established radioligand competition assay was carried out to evaluate binding affinity of the test compounds and were compared with that of the reference agent (S)-5-OH-DPAT (Table 3). Binding affinity to rat DA D2 and D3 receptors expressed in HEK-293 cells was determined as described by us previously. […] This indicated highest tolerance of the 4-substituted carbazole derivative for interaction with the D2 and D3 receptors.
as §1

human DA D2 receptors = human DA D2 receptors (Homo sapiens (Human), UniProt P14416); test: [35S]GTPγS binding stimulation, human D2 receptors in CHO cells; format: biochemical
human DA D3 receptors = human DA D3 receptors (Homo sapiens (Human), UniProt P35462); test: [35S]GTPγS binding stimulation, human D3 receptors in CHO cells; format: biochemical
[1] = test system: reserpine-induced hypolocomotion in rats; test: Reversal of reserpine-induced hypolocomotion in rats; conditions: 10 μMol/kg, ip
Experimental: In this model depletion of catecholamines by reserpine results in catalepsy in rats.
The following commercially available drug was used in the experiment: reserpine hydrochloride (Alfa Aesar). […] The compounds for this study were administered in a volume of 0.1-0.2 mL for subcutaneous administration and 0.5-0.7 ml for interaperitoneal administration into each rat.
In rodent studies, animals were male and female Sprague-Dawley rats from Harlan (Indianapolis, Ind.) weighing 220-225 g unless otherwise specified. Animals were maintained in sawdust-lined cages in a temperature and humidity controlled environment at 22±1° C. and 60±5% humidity, respectively. A 12 h light/dark cycle was maintained, with lights on from 6:00 a.m. to 6:00 p.m. They were group-housed with unrestricted access to food and water. All experiments were performed during the light component.
Reserpine (5.0 mg/kg, sc) was administered 18 h before the injection of drug or vehicle. The rats were placed individually in the chambers for 1 h for acclimatization before administration of the test drugs or vehicle. Immediately after administration of drug or vehicle, animals were individually placed in Opto-Varimex 4 animal activity monitor chamber (Columbus Instruments, Ohio, USA) to start measuring locomotor activity. Locomotion was monitored for 6 h. […] The data were presented as horizontal activity (HACTV). […] The data were analyzed by one-way analysis of variance (ANOVA) followed by Dunnett's post hoc test.

[2] = compared with maximum stimulation by full agonist DA

cloned rat D2L receptors, sequence (P61169 whole entry): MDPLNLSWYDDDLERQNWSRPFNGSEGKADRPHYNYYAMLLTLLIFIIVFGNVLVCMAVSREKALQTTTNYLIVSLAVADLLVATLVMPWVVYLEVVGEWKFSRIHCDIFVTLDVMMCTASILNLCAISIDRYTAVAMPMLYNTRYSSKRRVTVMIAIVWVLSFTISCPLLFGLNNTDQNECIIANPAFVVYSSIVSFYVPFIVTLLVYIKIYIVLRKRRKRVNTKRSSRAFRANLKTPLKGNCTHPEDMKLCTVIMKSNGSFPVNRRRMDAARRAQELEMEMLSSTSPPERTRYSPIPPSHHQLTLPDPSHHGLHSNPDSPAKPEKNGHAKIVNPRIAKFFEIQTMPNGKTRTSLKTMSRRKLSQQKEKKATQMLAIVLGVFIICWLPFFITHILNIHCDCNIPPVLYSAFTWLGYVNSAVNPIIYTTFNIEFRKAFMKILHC
cloned D2L receptors, sequence (P61169 whole entry): as above
cloned rat D3 receptors, sequence (P19020 whole entry): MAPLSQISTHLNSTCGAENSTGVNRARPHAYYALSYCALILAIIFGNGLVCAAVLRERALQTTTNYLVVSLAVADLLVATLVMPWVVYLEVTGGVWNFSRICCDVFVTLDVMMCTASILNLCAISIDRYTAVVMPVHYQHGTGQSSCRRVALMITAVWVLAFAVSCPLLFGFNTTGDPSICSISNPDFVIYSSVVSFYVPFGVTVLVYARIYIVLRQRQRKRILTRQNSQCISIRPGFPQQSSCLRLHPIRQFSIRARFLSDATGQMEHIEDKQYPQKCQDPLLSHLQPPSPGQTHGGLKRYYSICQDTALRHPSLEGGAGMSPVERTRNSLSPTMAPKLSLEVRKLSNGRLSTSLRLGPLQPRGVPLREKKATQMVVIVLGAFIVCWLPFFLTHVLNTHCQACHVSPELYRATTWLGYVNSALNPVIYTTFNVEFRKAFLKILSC
cloned D3 receptors, sequence (P19020 whole entry): as above
human DA D2 receptors, sequence (P14416 whole entry): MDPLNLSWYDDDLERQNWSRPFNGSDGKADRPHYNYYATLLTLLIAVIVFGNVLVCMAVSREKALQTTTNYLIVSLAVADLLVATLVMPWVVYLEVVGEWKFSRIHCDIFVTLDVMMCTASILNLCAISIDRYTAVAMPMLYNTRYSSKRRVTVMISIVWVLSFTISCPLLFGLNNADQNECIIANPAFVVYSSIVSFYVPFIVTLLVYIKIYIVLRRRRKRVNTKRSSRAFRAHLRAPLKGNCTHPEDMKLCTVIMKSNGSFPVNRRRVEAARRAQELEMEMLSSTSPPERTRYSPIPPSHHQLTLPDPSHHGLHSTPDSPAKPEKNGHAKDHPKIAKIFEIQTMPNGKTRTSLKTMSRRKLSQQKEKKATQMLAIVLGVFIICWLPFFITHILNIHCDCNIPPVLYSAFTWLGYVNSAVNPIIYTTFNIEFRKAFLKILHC
human DA D3 receptors, sequence (P35462 whole entry): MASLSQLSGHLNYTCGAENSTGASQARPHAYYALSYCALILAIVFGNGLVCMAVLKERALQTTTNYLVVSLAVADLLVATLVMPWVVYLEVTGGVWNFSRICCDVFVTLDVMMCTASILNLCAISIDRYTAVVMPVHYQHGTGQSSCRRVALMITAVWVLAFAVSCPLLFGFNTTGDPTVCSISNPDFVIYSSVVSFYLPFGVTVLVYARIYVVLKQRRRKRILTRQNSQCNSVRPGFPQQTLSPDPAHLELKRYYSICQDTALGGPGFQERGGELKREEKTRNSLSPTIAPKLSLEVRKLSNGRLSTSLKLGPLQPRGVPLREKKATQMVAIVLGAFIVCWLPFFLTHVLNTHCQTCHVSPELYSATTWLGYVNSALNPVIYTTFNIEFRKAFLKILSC

Structure (SMILES)	Ki (cloned D2L receptors) [nM]	Ki (cloned D3 receptors) [nM]	Ki (cloned rat D2L receptors) [nM]	D2/D3 (cloned rat D2L receptors)	Ki (cloned rat D3 receptors) [nM]	also measured
CCCN(CCCCCc1ccc(O)c(OC)c1)[C@@H]1CCc2nc(N)sc2C1 [(−)-23, (R)-4-(5-((2-Amino-4,5,6,7-tetrahydrobenzo[d]thiazol-6-yl)(propyl)amino)pentyl)-2-methoxyphenol]	68.3 ± 12	1.57 ± 0.41				
CCCN(CCCCCc1ccc(O)c(O)c1)[C@@H]1CCc2nc(N)sc2C1 [(−)-34, (R)-4-(5-((2-Amino-4,5,6,7-tetrahydrobenzo[d]thiazol-6-yl)(propyl)amino)pentyl)benzene-1,2-diol]	65.7 ± 11.7	1.42 ± 0.14				
CCCN(CCCCCc1cc(O)ccc1O)[C@@H]1CCc2nc(N)sc2C1 [(−)-36, (R)-2-(5-((2-Amino-4,5,6,7-tetrahydrobenzo[d]thiazol-6-yl)(propyl)amino)pentyl)benzene-1,4-diol]		0.78 ± 0.2				
CCCN(CCN1CCN(c2ccc3c(c2)[nH]c2ccccc23)CC1)[C@H]1CCc2nc(N)sc2C1 [(−)-91a, (S)—N^6-(2-(4-(9H-carbazol-2-yl)piperazin-1-yl)ethyl)-N^6-propyl-4,5,6,7-tetrahydrobenzo[d]thiazole-2,6-diamine]			504	128	3.94	
CCCN(CCN1CCN(c2cccc3[nH]c4ccccc4c23)CC1)[C@H]1CCc2nc(N)sc2C1 [(−)-91c, (S)—N^6-(2-(4-(9H-carbazol-4-yl)piperazin-1-yl)ethyl)-N^6-propyl-4,5,6,7-tetrahydrobenzo[d]thiazole-2,6-diamine]						EC50 (human DA D2 receptors; CHO cells, read-out: EC50 (GTPγS), D2): 22.2 nM; Emax (human DA D2 receptors; [2]): 57%; EC50 (human DA D3 receptors; CHO cells, read-out: EC50 (GTPγS), D3): 1.67 nM; Emax (human DA D3 receptors; [2]): 82%
CCCN(CCN1CCN(c2ccc3[nH]c4ccccc4c3c2)CC1)[C@H]1CCc2c(O)cccc2C1 [(−)-95b, (S)-6-((2-(4-(9H-carbazol-3-yl)piperazin-1-yl)ethyl)(propyl)amino)-5,6,7,8-tetra-hydronaphthalen-1-ol]			61.6		1.94	
CCCN(CCN1CCN(CCn2c3ccccc3c3ccccc32)CC1)[C@H]1CCc2nc(N)sc2C1 [(−)-101, (S)—N^6-(2-(4-(2-(9H-carbazol-9-yl)ethyl)piperazin-1-yl)ethyl)-N^6-propyl-4,5,6,7-tetrahydrobenzo[d]thiazole-2,6-diamine]			82.6	12	7.18	
CCCN(CCCc1ccc(O)c(OC)c1)C1CCc2nc(N)sc2C1 (centres unmarked) [Compound 22, 4-(3-((2-Amino-4,5,6,7-tetrahydrobenzo[d]thiazol-6-yl)(propyl)amino)propyl)-2-methoxyphenol]	2400	15.8 ± 2				
CCCN(CCCCCc1ccc(O)c(OC)c1)C1CCc2nc(N)sc2C1 (centres unmarked) [Compound 23, 4-(5-((2-Amino-4,5,6,7-tetrahydrobenzo[d]thiazol-6-yl)(propyl)amino)pentyl)-2-methoxyphenol]	175 ± 8					
CCCN(CCCCCc1ccc(O)c(O)c1)C1CCc2nc(N)sc2C1 (centres unmarked) [Compound 34, 4-(5-((2-Amino-4,5,6,7-tetrahydrobenzo[d]thiazol-6-yl)(propyl)amino)pentyl)benzene-1,2-diol]	116 ± 8	2.59 ± 0.31				
CCCN(CCCCCc1cc(O)ccc1O)C1CCc2nc(N)sc2C1 (centres unmarked) [Compound 35, 2-(5-((2-Amino-4,5,6,7-tetrahydrobenzo[d]thiazol-6-yl)(propyl)amino)pentyl)benzene-1,4-diol]		1.01 ± 0.28				
CCCN(CCC/C=C\c1ccc(O)c(OC)c1)C1CCc2nc(N)sc2C1 (centres unmarked) [Compound 39, (Z)-4-(5-((2-amino-4,5,6,7-tetrahydrobenzo[d]thiazol-6-yl)(propyl)amino)pent-1-en-1-yl)-2-methoxyphenol]	233 ± 8	23.3 ± 4				
CCCN(CCCC1(O)C=CC(O)=CC1)C1CCc2nc(N)sc2C1 (centres unmarked) [Compound 54, 4-(3-((2-Amino-4,5,6,7-tetrahydrobenzo[d]thiazol-6-yl)(propyl)amino)propyl)-benzene-1,4-diol]		11.9 ± 1.9				
CCCN(C/C=C/c1ccc(O)c(OC)c1)C1CCc2nc(N)sc2C1 (centres unmarked) [Compound 63, (E)-4-(3-((2-amino-4,5,6,7-tetrahydrobenzo[d]thiazol-6-yl)(propyl)amino)prop-1-en-1-yl)-2-methoxyphenol]	4630	39.1 ± 5.4				
CCCN(CCN1CCN(c2ccc3c(c2)C(=O)C(=O)N3)CC1)[C@H]1CCc2nc(N)sc2C1 [Compound 70]	162 ± 7	14.2 ± 3.8				
CCCN(CCN1CCN(c2ccc3c(c2)[nH]c2ccccc23)CC1)C1CCc2nc(N)sc2C1 (centres unmarked) [Compound 90a, N^6-(2-(4-(9H-carbazol-2-yl)piperazin-1-yl)ethyl)-N^6-propyl-4,5,6,7-tetrahydrobenzo-[d]thiazole-2,6-diamine]			902	146	6.18	
CCCN(CCN1CCN(c2ccc3[nH]c4ccccc4c3c2)CC1)C1CCc2nc(N)sc2C1 (centres unmarked) [Compound 90b, N^6-(2-(4-(9H-carbazol-3-yl)piperazin-1-yl)ethyl)-N^6-propyl-4,5,6,7-tetrahydrobenzo[d]thiazole-2,6-diamine]			612	196	3.12	
CCCN(CCN1CCN(c2cccc3[nH]c4ccccc4c23)CC1)C1CCc2nc(N)sc2C1 (centres unmarked) [Compound 90c, N^6-(2-(4-(9H-carbazol-4-yl)piperazin-1-yl)ethyl)-N^6-propyl-4,5,6,7-tetrahydrobenzo[d]thiazole-2,6-diamine]			76.9	9.86	7.8	
CCCN(CCN1CCN(CCn2c3ccccc3c3ccccc32)CC1)C1CCc2nc(N)sc2C1 (centres unmarked) [Compound 100, N^6-(2-(4-(2-(9H-carbazol-9-yl)ethyl)piperazin-1-yl)ethyl)-N^6-propyl-4,5,6,7-tetrahydrobenzo[d]thiazole-2,6-diamine]			435	65.9	6.6	
CCCN(CCC)CCc1cccc2c1CC(=O)N2 [ropinirole, reference compound]						duration of locomotor activation ([1]; locomotion monitored for 6 h): shorter duration of action; reversal of reserpine-induced akinesia / hypolocomotion (horizontal activity) ([1]; reserpine 5 mg/kg sc, 18 h pretreatment, rats): fast onset of activation of locomotion
